Test results published in paper PMC4823954, “From fighting depression to conquering tumors: a novel tricyclic thiazepine compound as a tubulin polymerization inhibitor” (Cell Death & Disease, 2016).

Assays:
TXK = target: T1, TXK (Homo sapiens, UniProt P42681); experiment: KINOMEscan; format: binding; conditions: read-out: % Ctrl
T1 construct: purchased DiscoveRx KINOMEscan
Protocol: (§1) The binding assay for 442 non-mutant kinases was performed using KINOMEscan (DiscoveRx Corporation, Fremont, CA, USA) as reported previously.[58], [59] TBPT was screened at concentrations of 5 and 10 μM to identify the affected kinases. KINOMEscan is based on a competition reaction that quantitatively measures the ability of a test compound to compete with an active site-directed ligand for binding to the kinase active site. […] After the assay plates were incubated with shaking for 1 h, the liganded beads were washed with washing buffer (1 × PBS and 0.05% Tween 20). Then, the beads were re-suspended in elution buffer (1 × PBS, 0.05% Tween 20, and 0.5 μM ligand) and incubated with shaking for 30 min. The kinase concentration in the eluates was measured via qPCR. The results are represented as ‘%Ctrl', which was calculated using the following formula: (test compound signal–positive control signal)/(DMSO signal–positive control signal) × 100%. A lower % Ctrl indicates stronger binding to the kinase active site.

TIE2 = target: T2, TIE2 (Homo sapiens, UniProt Q02763); experiment: KINOMEscan; format: binding; conditions: read-out: % Ctrl
T2 construct: purchased DiscoveRx KINOMEscan
Protocol: as §1

MLK1 = target: T3, MLK1 (Homo sapiens, UniProt P80192); experiment: KINOMEscan; format: binding; conditions: read-out: % Ctrl
T3 construct: purchased DiscoveRx KINOMEscan
Protocol: as §1

CAMK2B = target: T4, CAMK2B (Homo sapiens, UniProt Q13554); experiment: KINOMEscan; format: binding; conditions: read-out: % Ctrl
T4 construct: purchased DiscoveRx KINOMEscan
Protocol: as §1

NEK2 = target: T5, NEK2 (Homo sapiens, UniProt P51955); experiment: KINOMEscan; format: binding; conditions: read-out: % Ctrl
T5 construct: purchased DiscoveRx KINOMEscan
Protocol: as §1

GSK3B = target: T6, GSK3B (Homo sapiens, UniProt P49841); experiment: KINOMEscan; format: binding; conditions: read-out: % Ctrl
T6 construct: purchased DiscoveRx KINOMEscan
Protocol: as §1

GRK4 = target: T7, GRK4 (Homo sapiens, UniProt P32298); experiment: KINOMEscan; format: binding; conditions: read-out: % Ctrl
T7 construct: purchased DiscoveRx KINOMEscan
Protocol: as §1

JNK2 = target: T8, JNK2 (Homo sapiens, UniProt P45984); experiment: KINOMEscan; format: binding; conditions: read-out: % Ctrl
T8 construct: purchased DiscoveRx KINOMEscan
Protocol: as §1

ZAK = target: T9, ZAK (Homo sapiens, UniProt Q9NYL2); experiment: KINOMEscan; format: binding; conditions: read-out: % Ctrl
T9 construct: purchased DiscoveRx KINOMEscan
Protocol: as §1

[1] = target: RPS6KA4(Kin.Dom.2-C-terminal) (Homo sapiens, UniProt O75676); experiment: KINOMEscan; format: binding; conditions: read-out: % Ctrl
Protocol: as §1

PRKCQ = target: T10, PRKCQ (Homo sapiens, UniProt Q04759); experiment: KINOMEscan; format: binding; conditions: read-out: % Ctrl
T10 construct: purchased DiscoveRx KINOMEscan
Protocol: as §1

RIOK2 = target: T11, RIOK2 (Homo sapiens, UniProt Q9BVS4); experiment: KINOMEscan; format: binding; conditions: read-out: % Ctrl
T11 construct: purchased DiscoveRx KINOMEscan
Protocol: as §1

PIK3CA(E542K) = target: T12, PIK3CA(E542K) (Homo sapiens, UniProt P42336, E542K); experiment: KINOMEscan; format: binding; conditions: read-out: % Ctrl
T12 construct: purchased DiscoveRx KINOMEscan
Protocol: as §1

ABL2 = target: T13, ABL2 (Homo sapiens, UniProt P42684); experiment: KINOMEscan; format: binding; conditions: read-out: % Ctrl
T13 construct: purchased DiscoveRx KINOMEscan
Protocol: as §1

[2] = target: T14, TYK2(JH2domain-pseudokinase) (Homo sapiens, UniProt P29597); experiment: KINOMEscan; format: binding; conditions: read-out: % Ctrl
T14 construct: TYK2(JH2domain-pseudokinase); purchased DiscoveRx KINOMEscan
Protocol: as §1

ULK2 = target: T15, ULK2 (Homo sapiens, UniProt Q8IYT8); experiment: KINOMEscan; format: binding; conditions: read-out: % Ctrl
T15 construct: purchased DiscoveRx KINOMEscan
Protocol: as §1

[3] = target: T16, ABL1(Y253F)-phosphorylated (Homo sapiens, UniProt P00519, Y253F); experiment: KINOMEscan; format: binding; conditions: read-out: % Ctrl
T16 construct: purchased DiscoveRx KINOMEscan

EGFR(G719C) = target: T17, EGFR(G719C) (Homo sapiens, UniProt P00533, G719C); experiment: KINOMEscan; format: binding; conditions: read-out: % Ctrl
T17 construct: purchased DiscoveRx KINOMEscan

KIT(V559D,V654A) = target: T18, KIT(V559D,V654A) (Homo sapiens, UniProt P10721, V559D/V654A); experiment: KINOMEscan; format: binding; conditions: read-out: % Ctrl
T18 construct: purchased DiscoveRx KINOMEscan

FLT3(ITD) = experiment: KINOMEscan; format: binding, human
Protocol: as §1

tubulin = target: T19, tubulin (Sus scrofa, UniProt P02550+P02554); experiment: Tubulin polymerization assay (cell-free); format: biochemical; conditions: fluorescence, 50 min, 37 °C, read-out: IC50 of tubulin polymerization (microtubule formation)
T19 construct: purchased Cytoskeleton, Denver, CO, USA
Protocol: A fluorescence-based tubulin polymerization assay kit was used to monitor the polymerization process according to the manufacturer's instructions (Cytoskeleton, Denver, CO, USA). […] Tubulin solution (50 μl) was dispensed rapidly into each well.

[4] = toxicity in xenografted mice; conditions: TBPT 30 or 60 mg/kg x5, PTX 10 mg/kg x4, i.v.
Protocol: Five injections of vehicle and TBPT (30 or 60 mg/kg) were administered intravenously at days 1, 3, 5, 7 and 9 (arrows). Four injections of PTX (10 mg/kg) were administered intravenously at days 1, 3, 5 and 7. (a) The tumor volume was measured every other day. When the tumor volume in the solvent-treated group exceeded 1500 mm^3, the experiment was terminated. (b) Blood biochemical and hematological analyses. (c) The body weights of the mice were monitored every other day during the experiments. *P<0.05, Student's t-test with day 0, N=5
Figure 3 Histopathological examination of the major organs from TBPT or PTX-treated mouse tumor at the end of the experiments. The cross-sections of organs were stained with hematoxylin–eosin. […] The scale bars represent 50 μm and are uniform in each column
H460 and H460TaxR cells (5 × 10^6 cells in 100 μl PBS) were injected subcutaneously into the dorsal flank of each mouse. When the tumors reached volumes of 100 mm^3, the mice were divided randomly into four groups. The mice were treated every other day five times with intravenous injections of (1) vehicle (the solvent of TBPT: 60% PBS, 8% Cremophor EL, 8% EtOH, 12% poly propylene glycol and 12% PEG-400), (2) TBPT (30 mg/kg) or (3) TBPT (60 mg/kg). Another group was treated with PTX (10 mg/kg) every other day four times as the positive control. The tumor dimensions and body weights were measured every other day. The tumor volume was calculated according to a standard formula: volume=width^2 × length/2. The experiment was terminated and the mice were killed when the tumor volumes in the solvent-treated group exceeded 1500 mm^3. The mouse organs and blood were collected and used for hematoxylin–eosin staining and serum chemistry assay. TGI rates were assessed using the following formula: TGI=1− (Tt−T0)/(Ct−C0) × 100%. Tt and T0 indicate the tumor volumes of the treated group at days t and 0. Ct and C0 indicate the tumor volumes of the control group at days t and 0, respectively.

EGFR(T790M) = target: T20, EGFR(T790M) (Homo sapiens, UniProt P00533, T790M); experiment: KINOMEscan; format: binding; conditions: read-out: % Ctrl
T20 construct: purchased DiscoveRx KINOMEscan

[5] = target: T21, ABL1(F317I)-nonphosphorylated (Homo sapiens, UniProt P00519, F317I); experiment: KINOMEscan; format: binding; conditions: read-out: % Ctrl
T21 construct: purchased DiscoveRx KINOMEscan

H460TaxR = experiment: Apoptosis flow cytometry (PI/Annexin V-FITC); format: cell-based, human; conditions: NSCLC cells (H460TaxR), 2 μM, 48 h
KIT(A829P) = target: T22, KIT(A829P) (Homo sapiens, UniProt P10721, A829P); experiment: KINOMEscan; format: binding; conditions: read-out: % Ctrl
T22 construct: purchased DiscoveRx KINOMEscan

RET(V804L) = target: T23, RET(V804L) (Homo sapiens, UniProt P07949, V804L); experiment: KINOMEscan; format: binding; conditions: read-out: % Ctrl
T23 construct: purchased DiscoveRx KINOMEscan

MET(M1250T) = target: T24, MET(M1250T) (Homo sapiens, UniProt P08581, M1250T); experiment: KINOMEscan; format: binding; conditions: read-out: % Ctrl
T24 construct: purchased DiscoveRx KINOMEscan

T12 sequence (P42336 whole entry E542K): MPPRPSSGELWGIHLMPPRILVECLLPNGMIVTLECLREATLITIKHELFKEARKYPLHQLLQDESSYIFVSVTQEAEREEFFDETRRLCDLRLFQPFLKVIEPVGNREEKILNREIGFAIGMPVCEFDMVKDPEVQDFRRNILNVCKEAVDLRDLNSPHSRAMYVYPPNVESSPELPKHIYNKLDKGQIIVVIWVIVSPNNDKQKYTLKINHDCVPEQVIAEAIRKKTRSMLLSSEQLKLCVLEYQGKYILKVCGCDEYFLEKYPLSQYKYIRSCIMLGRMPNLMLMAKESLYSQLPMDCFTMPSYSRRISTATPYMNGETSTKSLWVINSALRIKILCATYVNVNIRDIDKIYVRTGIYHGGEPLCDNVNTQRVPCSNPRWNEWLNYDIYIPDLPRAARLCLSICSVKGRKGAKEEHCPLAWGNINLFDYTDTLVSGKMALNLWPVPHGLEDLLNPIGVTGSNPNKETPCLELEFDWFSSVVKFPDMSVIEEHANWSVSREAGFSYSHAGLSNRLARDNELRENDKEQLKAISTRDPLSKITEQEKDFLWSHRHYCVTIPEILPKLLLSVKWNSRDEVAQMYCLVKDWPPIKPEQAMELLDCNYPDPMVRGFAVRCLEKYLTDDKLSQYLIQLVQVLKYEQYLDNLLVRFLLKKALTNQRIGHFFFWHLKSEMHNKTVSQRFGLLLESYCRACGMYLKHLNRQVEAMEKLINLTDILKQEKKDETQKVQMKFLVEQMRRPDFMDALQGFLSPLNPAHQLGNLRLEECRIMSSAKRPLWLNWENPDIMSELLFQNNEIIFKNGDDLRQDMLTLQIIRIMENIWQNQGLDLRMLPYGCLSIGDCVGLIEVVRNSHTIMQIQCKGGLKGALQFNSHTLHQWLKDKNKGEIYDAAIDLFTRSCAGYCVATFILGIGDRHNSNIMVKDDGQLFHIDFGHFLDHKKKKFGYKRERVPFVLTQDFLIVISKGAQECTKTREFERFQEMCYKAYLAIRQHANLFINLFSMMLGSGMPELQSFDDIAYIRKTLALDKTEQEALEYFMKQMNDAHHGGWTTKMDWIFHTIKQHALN
T20 sequence (P00533 25-1210 T790M): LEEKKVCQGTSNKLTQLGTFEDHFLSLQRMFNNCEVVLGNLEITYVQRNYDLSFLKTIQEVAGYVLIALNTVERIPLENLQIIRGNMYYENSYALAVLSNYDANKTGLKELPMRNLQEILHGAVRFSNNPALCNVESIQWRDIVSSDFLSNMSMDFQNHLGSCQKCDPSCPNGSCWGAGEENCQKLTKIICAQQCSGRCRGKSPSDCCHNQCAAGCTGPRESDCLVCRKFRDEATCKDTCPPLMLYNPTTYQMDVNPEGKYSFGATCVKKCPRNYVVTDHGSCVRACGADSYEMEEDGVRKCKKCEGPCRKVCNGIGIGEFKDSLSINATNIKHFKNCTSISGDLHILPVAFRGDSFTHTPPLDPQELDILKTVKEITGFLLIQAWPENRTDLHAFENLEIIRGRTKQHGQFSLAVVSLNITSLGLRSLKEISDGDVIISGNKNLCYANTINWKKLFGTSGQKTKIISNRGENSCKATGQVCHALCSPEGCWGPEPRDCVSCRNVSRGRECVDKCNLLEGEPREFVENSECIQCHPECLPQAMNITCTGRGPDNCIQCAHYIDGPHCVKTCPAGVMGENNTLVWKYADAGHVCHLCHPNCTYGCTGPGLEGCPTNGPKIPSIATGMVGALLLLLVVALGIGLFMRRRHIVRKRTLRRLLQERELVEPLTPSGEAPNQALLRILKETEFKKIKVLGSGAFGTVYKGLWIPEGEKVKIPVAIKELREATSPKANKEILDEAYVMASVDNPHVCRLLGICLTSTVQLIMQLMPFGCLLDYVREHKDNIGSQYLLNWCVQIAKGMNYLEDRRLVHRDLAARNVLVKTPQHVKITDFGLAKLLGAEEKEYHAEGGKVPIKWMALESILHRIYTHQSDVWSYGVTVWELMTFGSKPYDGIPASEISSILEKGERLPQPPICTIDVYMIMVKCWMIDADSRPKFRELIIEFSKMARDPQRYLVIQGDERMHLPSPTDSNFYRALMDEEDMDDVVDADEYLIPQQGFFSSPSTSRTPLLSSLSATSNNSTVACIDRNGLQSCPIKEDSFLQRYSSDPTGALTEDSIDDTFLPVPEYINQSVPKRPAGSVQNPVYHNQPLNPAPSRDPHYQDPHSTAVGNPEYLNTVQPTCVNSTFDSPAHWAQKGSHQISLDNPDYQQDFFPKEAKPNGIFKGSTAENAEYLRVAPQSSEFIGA
T1 sequence (P42681 whole entry): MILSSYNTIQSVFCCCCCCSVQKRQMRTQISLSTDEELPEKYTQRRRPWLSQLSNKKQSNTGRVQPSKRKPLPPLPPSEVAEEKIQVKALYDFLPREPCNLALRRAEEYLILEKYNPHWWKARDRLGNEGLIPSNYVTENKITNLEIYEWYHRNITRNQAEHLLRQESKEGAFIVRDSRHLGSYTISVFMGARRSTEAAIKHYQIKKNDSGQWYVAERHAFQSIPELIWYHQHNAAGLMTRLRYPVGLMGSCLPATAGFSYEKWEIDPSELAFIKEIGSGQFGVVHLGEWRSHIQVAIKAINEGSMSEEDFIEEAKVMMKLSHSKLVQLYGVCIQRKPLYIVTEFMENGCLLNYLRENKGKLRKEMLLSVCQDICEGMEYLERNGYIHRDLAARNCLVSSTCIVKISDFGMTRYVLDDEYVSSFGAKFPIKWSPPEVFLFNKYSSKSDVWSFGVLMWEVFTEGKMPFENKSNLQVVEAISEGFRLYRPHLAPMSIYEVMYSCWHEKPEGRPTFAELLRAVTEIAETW
T17 sequence (P00533 25-1210 G719C): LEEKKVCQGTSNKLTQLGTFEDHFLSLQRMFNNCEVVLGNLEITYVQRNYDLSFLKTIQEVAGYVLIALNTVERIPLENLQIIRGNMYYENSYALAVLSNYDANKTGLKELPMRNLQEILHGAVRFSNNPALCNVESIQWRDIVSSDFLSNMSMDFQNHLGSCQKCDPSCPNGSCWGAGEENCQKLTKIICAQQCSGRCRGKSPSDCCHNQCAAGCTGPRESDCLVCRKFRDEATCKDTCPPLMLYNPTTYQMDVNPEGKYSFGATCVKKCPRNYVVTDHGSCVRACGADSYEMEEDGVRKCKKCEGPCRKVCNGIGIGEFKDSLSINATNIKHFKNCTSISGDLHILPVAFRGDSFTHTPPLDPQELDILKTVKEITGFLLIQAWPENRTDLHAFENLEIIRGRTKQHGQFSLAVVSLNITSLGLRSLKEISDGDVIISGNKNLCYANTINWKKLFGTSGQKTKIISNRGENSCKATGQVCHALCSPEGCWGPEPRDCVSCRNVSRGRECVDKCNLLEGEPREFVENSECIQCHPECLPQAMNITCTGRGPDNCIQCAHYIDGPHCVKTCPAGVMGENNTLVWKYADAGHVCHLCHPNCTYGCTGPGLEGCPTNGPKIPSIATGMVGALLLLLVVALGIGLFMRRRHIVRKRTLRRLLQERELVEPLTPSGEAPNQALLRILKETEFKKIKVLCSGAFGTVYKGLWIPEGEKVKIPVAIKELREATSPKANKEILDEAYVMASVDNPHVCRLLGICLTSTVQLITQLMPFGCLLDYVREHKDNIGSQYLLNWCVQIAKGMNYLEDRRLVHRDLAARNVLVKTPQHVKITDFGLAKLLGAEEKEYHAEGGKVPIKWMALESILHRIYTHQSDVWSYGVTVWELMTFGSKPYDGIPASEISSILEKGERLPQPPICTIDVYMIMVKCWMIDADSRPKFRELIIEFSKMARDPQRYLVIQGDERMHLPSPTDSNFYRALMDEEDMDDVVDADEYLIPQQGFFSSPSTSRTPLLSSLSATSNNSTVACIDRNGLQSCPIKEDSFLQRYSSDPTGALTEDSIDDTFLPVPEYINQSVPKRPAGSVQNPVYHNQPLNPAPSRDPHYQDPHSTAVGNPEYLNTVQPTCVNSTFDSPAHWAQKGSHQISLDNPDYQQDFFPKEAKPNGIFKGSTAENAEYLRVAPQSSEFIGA
T11 sequence (Q9BVS4 whole entry): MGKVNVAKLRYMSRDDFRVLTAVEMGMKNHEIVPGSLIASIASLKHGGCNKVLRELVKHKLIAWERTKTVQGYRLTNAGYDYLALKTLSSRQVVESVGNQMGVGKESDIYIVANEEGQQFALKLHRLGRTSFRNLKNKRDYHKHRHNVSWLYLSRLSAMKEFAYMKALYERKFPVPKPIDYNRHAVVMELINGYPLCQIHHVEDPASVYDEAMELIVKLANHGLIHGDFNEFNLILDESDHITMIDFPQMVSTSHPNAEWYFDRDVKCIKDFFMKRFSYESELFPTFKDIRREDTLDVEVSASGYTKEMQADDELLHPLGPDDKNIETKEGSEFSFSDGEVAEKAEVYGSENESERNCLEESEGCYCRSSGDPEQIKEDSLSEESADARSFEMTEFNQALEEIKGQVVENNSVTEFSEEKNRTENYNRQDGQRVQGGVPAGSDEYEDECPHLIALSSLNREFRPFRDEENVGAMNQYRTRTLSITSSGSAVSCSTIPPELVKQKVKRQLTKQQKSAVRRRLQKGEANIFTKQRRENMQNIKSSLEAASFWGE
Chain of RPS6KA4(Kin.Dom.2-C-terminal) (O75676 372-772 limits assumed): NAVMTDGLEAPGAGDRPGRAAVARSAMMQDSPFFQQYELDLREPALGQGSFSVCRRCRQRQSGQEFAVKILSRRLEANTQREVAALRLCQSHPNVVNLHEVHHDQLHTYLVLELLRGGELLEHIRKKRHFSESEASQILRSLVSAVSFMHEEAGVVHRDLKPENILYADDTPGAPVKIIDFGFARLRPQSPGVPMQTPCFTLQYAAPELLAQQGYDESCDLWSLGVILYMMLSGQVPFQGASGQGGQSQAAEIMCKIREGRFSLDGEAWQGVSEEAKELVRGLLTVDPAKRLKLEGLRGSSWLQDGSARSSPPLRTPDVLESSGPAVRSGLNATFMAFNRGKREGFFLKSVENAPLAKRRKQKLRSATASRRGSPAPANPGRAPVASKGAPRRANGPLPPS

Work on Cc1ccc(C2=Nc3cccnc3S(=O)(=O)c3ccccc32)cc1 [TBPT, 6-(p-tolyl)benzo[f] pyrido[2,3-b][1,4] thiazepine 11,11-dioxide] yielded a remaining binding at 5 µM (TXK; 5 μM) of 100%, a remaining binding at 10 µM (TXK; 10 μM) of 75% and a remaining binding at 5 µM (TIE2; 5 μM) of 100%. It also gave a remaining binding at 10 µM (TIE2; 10 μM) of 91%, a remaining binding at 5 µM (MLK1; 5 μM) of 100% and a remaining binding at 10 µM (MLK1; 10 μM) of 100%. For the same compound, the remaining binding at 5 µM (CAMK2B; 5 μM) was 100%, the remaining binding at 10 µM (CAMK2B; 10 μM) was 100% and the remaining binding at 5 µM (NEK2; 5 μM) was 92%. It also gave a remaining binding at 10 µM (NEK2; 10 μM) of 81%, a remaining binding at 5 µM (GSK3B; 5 μM) of 89% and a remaining binding at 10 µM (GSK3B; 10 μM) of 100%. For the same compound, the remaining binding at 5 µM (GRK4; 5 μM) was 100%, the remaining binding at 10 µM (GRK4; 10 μM) was 95% and the remaining binding at 5 µM (JNK2; 5 μM) was 99%. The remaining binding at 10 µM (JNK2; 10 μM) was 100%, the remaining binding at 5 µM (ZAK; 5 μM) was 94% and the remaining binding at 10 µM (ZAK; 10 μM) was 83%. The remaining binding at 5 µM ([1]; 5 μM) was 100%, the remaining binding at 10 µM ([1]; 10 μM) was 90% and the remaining binding at 5 µM (PRKCQ; 5 μM) was 100%. The remaining binding at 10 µM (PRKCQ; 10 μM) was 100%, the remaining binding at 5 µM (RIOK2; 5 μM) was 95% and the remaining binding at 10 µM (RIOK2; 10 μM) was 100%. For the same compound, the remaining binding at 5 µM (PIK3CA(E542K); 5 μM) was 93%, the remaining binding at 10 µM (PIK3CA(E542K); 10 μM) was 97% and the remaining binding at 5 µM (ABL2; 5 μM) was 80%. For the same compound, the remaining binding at 10 µM (ABL2; 10 μM) was 97%, the remaining binding at 5 µM ([2]; 5 μM) was 82% and the remaining binding at 10 µM ([2]; 10 μM) was 100%. The remaining binding at 5 µM (ULK2; 5 μM) was 91%, the remaining binding at 10 µM (ULK2; 10 μM) was 92% and the remaining binding at 5 µM ([3]; 5 μM) was 70%. The remaining binding at 10 µM ([3]; 10 μM) was 95%, the remaining binding at 5 µM (EGFR(G719C); 5 μM) was 73% and the remaining binding at 10 µM (EGFR(G719C); 10 μM) was 100%. For the same compound, the remaining binding at 5 µM (KIT(V559D,V654A); 5 μM) was 97%, the remaining binding at 10 µM (KIT(V559D,V654A); 10 μM) was 90% and the “% Ctrl” value (FLT3(ITD); 5 μM) was 95%. For the same compound, the “% Ctrl” value (FLT3(ITD); 10 μM) was 100%, the IC50 (tubulin) was 12.6 µM and the “toxicity to normal tissues (blood biochemical and hematological analyses, body weight, relative organ weights)” value [4] was “did not exhibit evident toxicity to normal tissues”. For the same compound, the remaining binding at 5 µM (EGFR(T790M); 5 μM) was 100%, the remaining binding at 10 µM (EGFR(T790M); 10 μM) was 96% and the remaining binding at 5 µM ([5]; 5 μM) was 89%. For the same compound, the remaining binding at 10 µM ([5]; 10 μM) was 100%, the “cells in an apoptotic/necrotic state” value (H460TaxR) was “approximately 50%” and the remaining binding at 5 µM (KIT(A829P); 5 μM) was 95%. For the same compound, the remaining binding at 10 µM (KIT(A829P); 10 μM) was 96%, the remaining binding at 5 µM (RET(V804L); 5 μM) was 100% and the remaining binding at 10 µM (RET(V804L); 10 μM) was 86%. For the same compound, the remaining binding at 5 µM (MET(M1250T); 5 μM) was 100% and the remaining binding at 10 µM (MET(M1250T); 10 μM) was 77%.
